The text below walks through data of ChEMBL document CHEMBL1201862, “PubChem BioAssay data set” (2004).

Series [1] has as its target Voltage-gated inwardly rectifying potassium channel KCNH2 (Homo sapiens, UniProt Q12809). To be noted: Potency.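 Further: confirmatory quantitative high-throughput screen measuring inhibition of hERG channel activity.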
The target of a further series is T1, Aminopeptidase N (Plasmodium falciparum FcB1/Columbia, UniProt O96935).
T1 sequence (O96935 whole entry): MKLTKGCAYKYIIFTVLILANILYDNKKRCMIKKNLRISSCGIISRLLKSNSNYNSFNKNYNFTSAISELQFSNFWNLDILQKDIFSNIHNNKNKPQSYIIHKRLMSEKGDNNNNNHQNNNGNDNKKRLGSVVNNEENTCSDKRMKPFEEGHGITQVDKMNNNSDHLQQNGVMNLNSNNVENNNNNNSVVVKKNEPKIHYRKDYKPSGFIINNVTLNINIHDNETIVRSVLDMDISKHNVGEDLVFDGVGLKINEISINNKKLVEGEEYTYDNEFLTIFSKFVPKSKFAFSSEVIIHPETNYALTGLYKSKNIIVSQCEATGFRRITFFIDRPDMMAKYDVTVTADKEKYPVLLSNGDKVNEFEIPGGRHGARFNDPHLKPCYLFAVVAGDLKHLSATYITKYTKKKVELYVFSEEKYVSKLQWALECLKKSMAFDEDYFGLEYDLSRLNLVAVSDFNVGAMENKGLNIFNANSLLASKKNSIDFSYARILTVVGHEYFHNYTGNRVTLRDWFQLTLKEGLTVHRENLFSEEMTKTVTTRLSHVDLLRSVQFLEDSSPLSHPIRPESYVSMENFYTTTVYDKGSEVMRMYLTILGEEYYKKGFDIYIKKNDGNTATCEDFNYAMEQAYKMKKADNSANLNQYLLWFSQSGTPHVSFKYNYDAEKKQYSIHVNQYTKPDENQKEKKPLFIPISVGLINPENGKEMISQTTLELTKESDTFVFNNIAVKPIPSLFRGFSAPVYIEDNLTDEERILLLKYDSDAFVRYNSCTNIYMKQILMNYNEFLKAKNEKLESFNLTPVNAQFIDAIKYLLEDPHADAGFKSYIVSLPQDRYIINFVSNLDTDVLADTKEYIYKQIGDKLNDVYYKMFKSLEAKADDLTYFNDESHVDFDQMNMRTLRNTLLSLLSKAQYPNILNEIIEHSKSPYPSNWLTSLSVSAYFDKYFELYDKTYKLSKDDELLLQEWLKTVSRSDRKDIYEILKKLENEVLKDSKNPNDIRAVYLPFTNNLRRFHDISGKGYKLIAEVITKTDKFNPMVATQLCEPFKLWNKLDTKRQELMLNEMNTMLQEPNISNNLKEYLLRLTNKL
As to the kind of experiment: P. falciparum M1AAP inhibitors, biochemical, fluorogenic H-Leu-NHMec substrate, 1536-well (AID 1445). Set-up: species or system Plasmodium falciparum 3D7, 3D7.

For a further series, the system named is Vero. Description: cells. The class given is functional. To be noted: Chlorocebus sabaeus.
The target in series [2] is Dual specificity tyrosine-phosphorylation-regulated kinase 1A (Rattus norvegicus, UniProt Q63470). The class given is biochemical, Homo sapiens.
Series [3] in a line: C. albicans growth with fluconazole, confirmation, fluorescence, retest (AID 2467). The class given is functional, cell-based.
Series [4] in a line: NIH-3T3 fibroblast cytotoxicity, dose response, cytotoxicity control, cell-based, fluorescence, Alamar Blue, secondary assay (AID 2327).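 Further: NIH-3T3 mouse fibroblasts cultured with fluconazole at 8 µg/mL.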 The class given is functional.
For series [5], the target named is T2, Alkaline phosphatase, tissue-nonspecific isozyme (Homo sapiens, UniProt P05186).
T2 sequence (P05186 whole entry): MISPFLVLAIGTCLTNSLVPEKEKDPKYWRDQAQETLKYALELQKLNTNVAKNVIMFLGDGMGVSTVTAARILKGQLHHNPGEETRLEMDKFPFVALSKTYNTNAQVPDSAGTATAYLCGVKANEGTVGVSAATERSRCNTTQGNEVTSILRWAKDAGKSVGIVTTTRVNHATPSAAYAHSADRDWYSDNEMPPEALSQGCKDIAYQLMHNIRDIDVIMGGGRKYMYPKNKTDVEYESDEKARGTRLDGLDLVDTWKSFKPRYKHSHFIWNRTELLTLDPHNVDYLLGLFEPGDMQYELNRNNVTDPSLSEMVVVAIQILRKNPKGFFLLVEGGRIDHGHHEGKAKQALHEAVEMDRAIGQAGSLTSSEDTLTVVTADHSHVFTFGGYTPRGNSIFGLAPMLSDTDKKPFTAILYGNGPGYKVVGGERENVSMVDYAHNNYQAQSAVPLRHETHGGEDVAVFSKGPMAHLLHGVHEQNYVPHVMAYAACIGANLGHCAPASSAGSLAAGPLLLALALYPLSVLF
As to the kind of experiment: human TNAP enzyme inhibitors, SAR follow-up, biochemical, luminescent, dose response (AID 1056).

Series [6] addresses Glyceraldehyde-3-phosphate dehydrogenase (Homo sapiens, UniProt P04406).
The next series relates to HeLa. Description: HeLa cell cytotoxicity, dose response, cytotoxicity control for MITF activator project, CellTiter-Glo luminescence, cherry-pick samples (AID 540259). The class given is functional, cell-based. To be noted: Homo sapiens.
In another series the target is Protein Wnt-3a (Mus musculus, UniProt P27467). Description: Wnt3a-driven reporter signaling inhibition, dose response, selectivity assay for Gli-SUFU antagonist project, Wnt-LIGHT cells, luminescence (AID 651570).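 Further: Wnt-LIGHT reporter cells stimulated with conditioned medium from Wnt3a-producing cells.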 The class given is functional. To be noted: read-out: IC50_Mean.
Series [7] addresses T3, Carboxy-terminal domain RNA polymerase II polypeptide A small phosphatase 1 (Homo sapiens, UniProt Q9GZU7).
T3 sequence (Q9GZU7 whole entry): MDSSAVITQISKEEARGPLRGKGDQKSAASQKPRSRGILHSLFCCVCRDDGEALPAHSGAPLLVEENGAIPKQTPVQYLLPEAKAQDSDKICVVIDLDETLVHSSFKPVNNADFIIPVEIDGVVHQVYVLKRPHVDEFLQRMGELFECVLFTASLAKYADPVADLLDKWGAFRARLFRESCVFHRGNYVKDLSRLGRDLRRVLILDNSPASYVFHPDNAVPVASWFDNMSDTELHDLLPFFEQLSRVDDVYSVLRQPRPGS
Description: inhibitors of CTDSP1, concentration-response testing, biochemical assay, absorbance-based, actives from ultra-high-throughput screening (AID 540297). The class given is functional.

The next series relates to INS1. As to the kind of experiment: beta cell apoptosis inhibitors, cytokine rescue, dose response, luminescence, retest (AID 449756).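 Further: cell death triggered by IL-1 beta plus TNF-alpha plus IFN-gamma mixture; protective hits raise ATP signal compared with cytokine alone wells.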 The class given is functional, cell-based. To be noted: Rattus norvegicus.
Series [8] in a line: THP-1 cell cytotoxicity, dose response, cytotoxicity control for Vif-APOBEC3G degradation inhibitor project, THP-1 cells (AID 1117359). The class given is functional. To be noted: Human immunodeficiency virus 1, THP-1.
Series [9] can be described thus: Luminescence Cell-Based Dose Retest to Confirm Inhibitors of Cancer Stem Cells. [Related pubchem assays (depositor defined):AID2717, AID2721]. The class given is functional. To be noted: Homo sapiens.
In series [10] the target is Mitogen-activated protein kinase 10 (Homo sapiens, UniProt P53779). As to the kind of experiment: Dose response biochemical screening assay for inhibitors of c-Jun N-Terminal Kinase 3 (JNK3). [Related pubchem assays: 746 ].
A further series concerns the target Large T antigen (Simian virus 40, UniProt P03070). The class given is functional, Betapolyomavirus macacae.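 Further: Confirmatory-stage PubChem screen for compounds that inhibit SV40 T antigen.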
In series [11] the target is T4, Rac GTPase-activating protein 1 (Homo sapiens, UniProt Q9H0H5).
T4 sequence (Q9H0H5 whole entry): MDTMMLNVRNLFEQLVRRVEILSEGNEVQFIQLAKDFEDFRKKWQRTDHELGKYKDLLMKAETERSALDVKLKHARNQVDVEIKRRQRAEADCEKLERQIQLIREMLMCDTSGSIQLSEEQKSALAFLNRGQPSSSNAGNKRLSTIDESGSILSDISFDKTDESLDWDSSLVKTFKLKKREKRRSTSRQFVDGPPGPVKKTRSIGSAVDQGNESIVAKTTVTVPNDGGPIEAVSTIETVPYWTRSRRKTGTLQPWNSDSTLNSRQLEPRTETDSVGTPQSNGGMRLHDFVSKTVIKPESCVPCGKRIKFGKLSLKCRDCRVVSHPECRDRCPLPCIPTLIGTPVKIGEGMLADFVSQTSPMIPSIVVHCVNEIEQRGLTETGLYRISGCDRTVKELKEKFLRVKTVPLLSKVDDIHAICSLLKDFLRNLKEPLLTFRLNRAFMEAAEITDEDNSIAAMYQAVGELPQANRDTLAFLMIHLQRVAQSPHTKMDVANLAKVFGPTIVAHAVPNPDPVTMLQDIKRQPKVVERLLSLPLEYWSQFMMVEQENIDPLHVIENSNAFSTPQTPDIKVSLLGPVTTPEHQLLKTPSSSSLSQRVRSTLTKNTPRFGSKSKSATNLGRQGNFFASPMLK
Description: MgcRacGAP GTPase-activating activity inhibitors, confirmation, biochemical, ADP Hunter fluorescence, primary and confirmatory (AID 624330). The class given is functional.

A further series has as its target T5, Cytochrome P450 1A2 (Homo sapiens, UniProt P05177).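 Further: PubChem cytochrome P450 panel assay, CYP1A2 panel member.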
T5 sequence (P05177 whole entry): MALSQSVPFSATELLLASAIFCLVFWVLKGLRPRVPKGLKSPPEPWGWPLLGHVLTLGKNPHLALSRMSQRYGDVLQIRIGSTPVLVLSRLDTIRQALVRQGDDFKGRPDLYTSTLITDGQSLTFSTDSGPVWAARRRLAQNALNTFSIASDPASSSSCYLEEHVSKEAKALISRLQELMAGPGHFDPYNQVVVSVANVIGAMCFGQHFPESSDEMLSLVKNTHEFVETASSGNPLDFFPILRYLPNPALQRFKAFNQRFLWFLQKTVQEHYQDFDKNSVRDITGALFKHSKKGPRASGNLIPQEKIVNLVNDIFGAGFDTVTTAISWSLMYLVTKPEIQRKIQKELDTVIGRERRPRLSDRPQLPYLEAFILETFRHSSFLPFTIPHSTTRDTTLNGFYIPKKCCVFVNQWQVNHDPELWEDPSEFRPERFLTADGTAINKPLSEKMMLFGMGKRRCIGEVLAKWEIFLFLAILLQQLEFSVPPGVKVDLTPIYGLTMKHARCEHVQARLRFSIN

Another series has as its target Cytochrome P450 2C19 (Homo sapiens, UniProt P33261). As to the kind of experiment: Cytochrome panel assay with activity outcomes. Panel member name: p450-cyp2c19 Compounds with AC50 equal or less than 10 uM are considered active. The class given is functional. To be noted: read-out: AC50.
The target in a further series is Cytochrome P450 3A4 (Homo sapiens, UniProt P08684).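 Further: CYP3A4 tested as one member of a cytochrome P450 panel screen.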
A further series addresses Cytochrome P450 2D6 (Homo sapiens, UniProt P10635).

Structures are written as SMILES. Activity calls are given as the source filed them.

Sequence of Voltage-gated inwardly rectifying potassium channel KCNH2 (Q12809 whole entry): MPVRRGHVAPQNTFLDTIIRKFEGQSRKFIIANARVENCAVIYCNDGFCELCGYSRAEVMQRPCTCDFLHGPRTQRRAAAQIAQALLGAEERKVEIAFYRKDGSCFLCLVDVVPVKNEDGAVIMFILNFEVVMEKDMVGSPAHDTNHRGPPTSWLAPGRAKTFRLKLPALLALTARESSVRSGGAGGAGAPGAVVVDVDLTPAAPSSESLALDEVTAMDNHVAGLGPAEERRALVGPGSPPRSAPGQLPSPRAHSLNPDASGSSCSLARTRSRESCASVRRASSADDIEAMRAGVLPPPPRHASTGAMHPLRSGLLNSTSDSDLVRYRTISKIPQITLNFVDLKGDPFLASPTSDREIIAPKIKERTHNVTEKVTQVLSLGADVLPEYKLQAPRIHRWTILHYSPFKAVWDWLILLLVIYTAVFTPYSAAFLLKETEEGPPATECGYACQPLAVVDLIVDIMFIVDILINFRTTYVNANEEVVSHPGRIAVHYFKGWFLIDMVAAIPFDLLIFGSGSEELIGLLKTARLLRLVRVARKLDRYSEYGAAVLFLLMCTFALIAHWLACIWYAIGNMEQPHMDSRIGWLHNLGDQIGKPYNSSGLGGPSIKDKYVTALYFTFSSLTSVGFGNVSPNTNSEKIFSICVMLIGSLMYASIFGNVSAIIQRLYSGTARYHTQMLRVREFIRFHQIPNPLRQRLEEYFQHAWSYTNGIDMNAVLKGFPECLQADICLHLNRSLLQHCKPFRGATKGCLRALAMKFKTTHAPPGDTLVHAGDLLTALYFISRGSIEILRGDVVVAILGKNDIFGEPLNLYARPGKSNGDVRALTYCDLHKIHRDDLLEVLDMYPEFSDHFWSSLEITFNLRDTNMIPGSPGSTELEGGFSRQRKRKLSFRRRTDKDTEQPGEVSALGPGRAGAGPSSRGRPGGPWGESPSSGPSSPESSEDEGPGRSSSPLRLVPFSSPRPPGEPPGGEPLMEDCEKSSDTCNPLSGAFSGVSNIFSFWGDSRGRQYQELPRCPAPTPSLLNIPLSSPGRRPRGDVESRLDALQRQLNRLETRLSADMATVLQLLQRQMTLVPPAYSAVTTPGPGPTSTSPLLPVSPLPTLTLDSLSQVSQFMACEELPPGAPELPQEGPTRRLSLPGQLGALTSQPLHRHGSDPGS
Sequence of Glyceraldehyde-3-phosphate dehydrogenase (P04406 whole entry): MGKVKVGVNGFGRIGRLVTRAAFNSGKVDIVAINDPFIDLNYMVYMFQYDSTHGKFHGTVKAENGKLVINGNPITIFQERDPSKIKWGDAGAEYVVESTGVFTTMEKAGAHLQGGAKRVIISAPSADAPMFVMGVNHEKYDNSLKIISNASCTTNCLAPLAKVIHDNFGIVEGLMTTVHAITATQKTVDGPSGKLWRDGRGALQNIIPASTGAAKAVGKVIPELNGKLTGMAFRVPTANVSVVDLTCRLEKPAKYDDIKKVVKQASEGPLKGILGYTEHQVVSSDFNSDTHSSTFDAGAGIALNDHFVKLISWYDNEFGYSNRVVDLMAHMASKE
Sequence of Cytochrome P450 3A4 (P08684 whole entry): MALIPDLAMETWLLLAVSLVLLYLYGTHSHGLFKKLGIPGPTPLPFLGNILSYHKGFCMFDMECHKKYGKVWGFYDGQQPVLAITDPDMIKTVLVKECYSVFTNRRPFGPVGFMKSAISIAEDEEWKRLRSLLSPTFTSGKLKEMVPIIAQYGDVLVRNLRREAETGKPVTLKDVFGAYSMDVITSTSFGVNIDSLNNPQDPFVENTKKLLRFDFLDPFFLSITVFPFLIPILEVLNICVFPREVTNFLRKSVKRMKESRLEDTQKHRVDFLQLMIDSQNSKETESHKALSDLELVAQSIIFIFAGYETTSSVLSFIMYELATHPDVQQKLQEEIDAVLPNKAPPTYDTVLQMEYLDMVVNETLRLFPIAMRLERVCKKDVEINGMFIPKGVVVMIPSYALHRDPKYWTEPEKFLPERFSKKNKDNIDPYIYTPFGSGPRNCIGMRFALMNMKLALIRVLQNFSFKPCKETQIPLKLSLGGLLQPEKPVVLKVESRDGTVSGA
Sequence of Mitogen-activated protein kinase 10 (P53779 whole entry): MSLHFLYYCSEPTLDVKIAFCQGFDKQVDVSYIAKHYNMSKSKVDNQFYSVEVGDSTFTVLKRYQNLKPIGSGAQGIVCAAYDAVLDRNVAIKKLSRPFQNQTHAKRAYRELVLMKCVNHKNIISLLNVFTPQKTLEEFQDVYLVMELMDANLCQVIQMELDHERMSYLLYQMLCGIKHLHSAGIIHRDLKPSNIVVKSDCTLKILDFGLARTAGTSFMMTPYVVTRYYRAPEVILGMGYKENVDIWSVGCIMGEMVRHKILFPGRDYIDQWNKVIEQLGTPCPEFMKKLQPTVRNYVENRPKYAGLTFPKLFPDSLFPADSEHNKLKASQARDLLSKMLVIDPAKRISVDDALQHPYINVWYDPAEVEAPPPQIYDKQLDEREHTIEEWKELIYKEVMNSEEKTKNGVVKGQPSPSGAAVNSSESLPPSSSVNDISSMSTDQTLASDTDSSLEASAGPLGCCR
Sequence of Cytochrome P450 2D6 (P10635 whole entry): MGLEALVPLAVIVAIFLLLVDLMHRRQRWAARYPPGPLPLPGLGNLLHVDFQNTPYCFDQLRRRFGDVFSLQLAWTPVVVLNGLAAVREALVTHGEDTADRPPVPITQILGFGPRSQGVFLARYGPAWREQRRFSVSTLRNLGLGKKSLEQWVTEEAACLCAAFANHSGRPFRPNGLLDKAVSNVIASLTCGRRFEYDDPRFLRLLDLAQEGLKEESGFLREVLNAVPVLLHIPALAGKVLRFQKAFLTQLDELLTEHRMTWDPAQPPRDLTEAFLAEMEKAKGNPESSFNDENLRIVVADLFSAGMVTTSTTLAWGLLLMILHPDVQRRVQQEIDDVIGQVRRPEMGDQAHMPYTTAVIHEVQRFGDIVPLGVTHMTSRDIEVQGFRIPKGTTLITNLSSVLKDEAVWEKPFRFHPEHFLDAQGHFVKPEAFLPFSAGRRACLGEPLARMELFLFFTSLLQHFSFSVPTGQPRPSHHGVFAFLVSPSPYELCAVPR
Sequence of Protein Wnt-3a (P27467 whole entry, the tested form may be a part): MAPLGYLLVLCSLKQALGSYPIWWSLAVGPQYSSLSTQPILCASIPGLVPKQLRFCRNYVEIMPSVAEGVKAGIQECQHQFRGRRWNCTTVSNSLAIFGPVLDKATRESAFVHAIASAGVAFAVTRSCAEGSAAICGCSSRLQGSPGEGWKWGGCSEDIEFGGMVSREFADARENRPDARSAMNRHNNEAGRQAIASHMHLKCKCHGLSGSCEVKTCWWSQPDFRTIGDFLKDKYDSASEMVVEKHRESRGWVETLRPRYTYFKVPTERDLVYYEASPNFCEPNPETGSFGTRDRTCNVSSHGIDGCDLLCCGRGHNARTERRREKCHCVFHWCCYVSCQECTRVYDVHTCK
Sequence of Large T antigen (P03070 whole entry): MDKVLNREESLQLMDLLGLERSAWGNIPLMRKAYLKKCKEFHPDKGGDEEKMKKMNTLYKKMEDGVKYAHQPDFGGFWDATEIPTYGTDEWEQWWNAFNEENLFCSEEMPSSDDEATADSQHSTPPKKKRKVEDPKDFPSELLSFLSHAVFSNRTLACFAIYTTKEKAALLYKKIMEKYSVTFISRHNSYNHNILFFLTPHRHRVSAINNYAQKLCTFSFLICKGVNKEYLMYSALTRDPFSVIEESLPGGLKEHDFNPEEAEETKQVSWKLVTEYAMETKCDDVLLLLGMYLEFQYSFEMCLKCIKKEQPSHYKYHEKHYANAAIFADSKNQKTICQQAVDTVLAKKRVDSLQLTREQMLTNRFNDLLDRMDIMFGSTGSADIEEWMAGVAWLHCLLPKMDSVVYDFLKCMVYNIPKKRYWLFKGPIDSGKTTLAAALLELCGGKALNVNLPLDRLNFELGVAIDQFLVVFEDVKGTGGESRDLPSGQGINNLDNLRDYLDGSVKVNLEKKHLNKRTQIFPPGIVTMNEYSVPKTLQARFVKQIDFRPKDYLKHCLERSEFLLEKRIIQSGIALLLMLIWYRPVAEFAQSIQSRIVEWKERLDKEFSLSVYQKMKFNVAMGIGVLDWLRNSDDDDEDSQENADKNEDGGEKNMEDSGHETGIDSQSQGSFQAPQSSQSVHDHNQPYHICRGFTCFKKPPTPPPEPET
Sequence of Cytochrome P450 2C19 (P33261 whole entry): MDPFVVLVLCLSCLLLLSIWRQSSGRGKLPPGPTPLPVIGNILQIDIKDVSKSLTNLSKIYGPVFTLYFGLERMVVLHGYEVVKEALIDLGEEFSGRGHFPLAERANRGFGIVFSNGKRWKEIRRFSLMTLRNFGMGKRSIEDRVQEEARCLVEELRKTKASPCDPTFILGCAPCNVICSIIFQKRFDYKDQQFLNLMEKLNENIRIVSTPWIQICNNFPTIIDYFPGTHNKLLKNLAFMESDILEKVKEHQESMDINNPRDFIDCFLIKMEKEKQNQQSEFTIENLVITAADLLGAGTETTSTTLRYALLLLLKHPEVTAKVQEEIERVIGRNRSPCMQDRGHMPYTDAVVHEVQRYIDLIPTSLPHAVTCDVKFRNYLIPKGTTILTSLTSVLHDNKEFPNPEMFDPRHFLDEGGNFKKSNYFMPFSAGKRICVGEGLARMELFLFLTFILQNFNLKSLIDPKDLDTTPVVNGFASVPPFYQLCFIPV

With `CCCCC(CC)CNCC(CC)CCCC` (stereo unspecified), in [1], the half-maximal activity concentration (AC50) (usually the concentration giving half of the maximal activity seen) was 10 µM (inconclusive). Regarding `CNc1ccc(/C=C(\CCC(=O)O)c2nc3ccccc3s2)cc1[N+](=O)[O-]`, the IC50 on Aminopeptidase N was 43.3 µM (active). For the compound `c1ccc(CSCc2ccccc2)cc1`, in series [1], the AC50 was 31.6 µM (inconclusive).

Consider `CCCCC(=O)NC(c1ccc([N+](=O)[O-])cc1)c1c(O)ccc2ccccc12` (stereo unspecified), for which, in the series on Vero, the CC50 (commonly the concentration giving 50% cytotoxicity) is 9.36 µM (active). With `O=C(Nc1cccc(Cl)c1)Nc1nccs1`, in series [2], the AC50 was 8.46 µM (active). In addition, the EC50 (usually the midpoint of the concentration-response curve) in series [3] was 1.17 µM (active); in [4] it was > 160 µM (inactive). On to `Cc1c(-c2ccccc2)n[nH]c1C(=O)O`, for which the IC50 in [5] is > 100 µM (inactive); in series [6], > 100 µM (not active). With `CN1CCN(c2ccc3ccccc3n2)CC1`, the AC50 in series [1] is 35.5 µM (inconclusive). Regarding `NNC(=O)c1cc(-c2cc(F)c(F)cc2F)[nH]n1`, the results for the IC50 in [5] and in series [6] were 0.316 µM (active) and > 10 µM (inconclusive), respectively. On to `CCCCN1C(=O)/C(=C/C=C2\SCCN2C)SC1=S`, for which, in the series on HeLa, the AC50 is 39.1 µM (active). In the case of `O=C(O)/C=C/c1ccc(/C=C/C(=O)O)cc1`, the AC50 in series [1] was 79.4 µM (inconclusive). Take `CC[N+](C)(CC)CCC(c1ccccc1)C1CCCCC1` (stereo unspecified): the IC50 on Protein Wnt-3a is 39 µM (inactive); in series [7] it was 4.65 µM (active). The AC50 in the series on INS1 was 233 µM (active). For `c1ccc(-c2noc(COc3ccc4c(c3)OCO4)n2)cc1`, the AC50 in the series with HeLa is 339 µM (active). As to `COc1ccccc1NS(=O)(=O)c1ccc(Cl)c(NC(=O)C(C)N2C(=O)c3ccccc3C2=O)c1` (stereo unspecified), at Aminopeptidase N, the IC50 was 26.9 µM (active). On to `CS(=O)(=O)Nc1ccc(-c2cc(/C=C3\SC(N)=NC3=O)cnc2O)cc1`, for which the AC50 in series [2] was 0.265 µM (active). With `COc1ccc(NC(=O)/C(C#N)=C/c2ccc(Br)o2)cc1`, the IC50 in [7] was 5.43 µM (active). In addition, the CC50 in [8] was 27.4 µM (active). Consider `O=C(Nc1ccc(Cl)c(Cl)c1)Nc1ccccc1O`, for which the results for the AC50 (in the series with HeLa; in series [9]) were 49.7 µM (active) and 5.67 µM (active), respectively. For the compound `NC(=O)c1cc(Br)cc2c3c([nH]c12)CCCC3`, the IC50 in series [10] is reported as 12.5 µM (not active). Also, the concentration at half-maximal activity (AC50) in [2] is 9.32 µM (active). On to `CCN1C(=O)/C(=C2/Sc3ccccc3N2CC)S/C1=N\c1nc[nH]n1`, for which the concentration at half-maximal activity (AC50) in series [2] is 1.04 µM (active). As to `O=C1OCC/C1=C\c1ccc(O)cc1`, the AC50 in series [2] is 0.585 µM (active). The IC50 on Large T antigen was 17.4 µM (active); in series [11], 28.9 µM (active). Turning to `Cn1c(SCC(=O)c2ccc(O)c(O)c2)nnc1-c1ccccc1`, the IC50 in series [5] is 93.4 µM (active). Consider `C[C@H](Cc1ccc(O)c(O)c1)[C@@H](C)Cc1ccc(O)c(O)c1` [MASOPROCOL], for which the AC50 on Cytochrome P450 1A2 was 25.1 µM (inconclusive); at Cytochrome P450 2C19 it was 15.8 µM (inconclusive); on Cytochrome P450 3A4, “inconclusive”; in series [1], 35.5 µM (inconclusive); at Cytochrome P450 2D6, 39.8 µM (inconclusive).
